Test results taken from US20230265151A1, “GIP/GLP1 CO-AGONIST COMPOUNDS” (priority 2020, published 2023).
Where two headings read alike, the source gives them in different places.

Columns and labels:
Format in all cases: cell-based
hGIPR = target: T1, hGIPR (Homo sapiens, UniProt P48546); test: Functional cAMP formation (HTRF) in HEK-293 clonal cells expressing hGIPR, 0.1% bovine casein, without or with 1.0% human serum albumin; details: for EC50: cAMP
T1 construct: expressed in transfected cells
T1 sequence (P48546 22-466): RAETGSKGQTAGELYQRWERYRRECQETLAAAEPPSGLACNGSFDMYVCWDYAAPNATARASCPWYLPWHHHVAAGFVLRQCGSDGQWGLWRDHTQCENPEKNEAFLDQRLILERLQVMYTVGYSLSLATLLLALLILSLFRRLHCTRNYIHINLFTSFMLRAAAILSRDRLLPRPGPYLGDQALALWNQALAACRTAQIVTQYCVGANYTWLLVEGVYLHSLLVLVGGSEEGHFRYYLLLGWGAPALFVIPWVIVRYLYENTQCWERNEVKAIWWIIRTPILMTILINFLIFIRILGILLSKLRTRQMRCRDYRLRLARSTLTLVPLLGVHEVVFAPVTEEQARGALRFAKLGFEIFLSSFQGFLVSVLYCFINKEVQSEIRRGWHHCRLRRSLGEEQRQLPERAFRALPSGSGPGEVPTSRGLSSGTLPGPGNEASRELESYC
How it was run: (§1)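 Cells were stimulated with peptide for 30 min at 37° C, then lysed in buffer carrying cAMP-d2 and anti-cAMP Eu3+-cryptate for a competitive HTRF read after at least 60 min at room temperature. The 665/620 nm ratio was converted to nM cAMP against a standard curve.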

hGLP-1R = hGLP-1R (Homo sapiens, UniProt P43220); test: Functional cAMP formation (HTRF) in HEK-293 clonal cells expressing hGLP-1R, 0.1% bovine casein, without or with 1.0% human serum albumin; parameters: expressed in transfected cells; details: for Emax: percent of maximal response to GLP-1(7-36)NH2; for EC50: cAMP
How it was run: as §1

hGCGR = target: T2, hGCGR (Homo sapiens, UniProt P47871); test: Functional cAMP formation (HTRF) in HEK-293 clonal cells expressing hGCGR, 0.1% bovine casein, without or with 1.0% human serum albumin; details: cAMP
T2 construct: expressed in transfected cells
How it was run: as §1

[1] = HEK293, cAMP, 37° C., 0.1% bovine casein, percent of maximal response to GIP(1-42)NH2, arithmetic mean, read-out: hGIPR Emax, % ± SEM
[2] = 37° C., 0.1% bovine casein (no human serum albumin), geometric mean, read-out: hGIPR EC50, nM (SEM, n)
[3] = 37° C., 0.1% bovine casein (no human serum albumin), geometric mean, read-out: hGLP-1R EC50, nM (SEM, n)
[4] = 37° C., 0.1% bovine casein (no human serum albumin), geometric mean, read-out: hGCGR EC50, nM (SEM, n)

Chain of hGLP-1R (P43220 24-463): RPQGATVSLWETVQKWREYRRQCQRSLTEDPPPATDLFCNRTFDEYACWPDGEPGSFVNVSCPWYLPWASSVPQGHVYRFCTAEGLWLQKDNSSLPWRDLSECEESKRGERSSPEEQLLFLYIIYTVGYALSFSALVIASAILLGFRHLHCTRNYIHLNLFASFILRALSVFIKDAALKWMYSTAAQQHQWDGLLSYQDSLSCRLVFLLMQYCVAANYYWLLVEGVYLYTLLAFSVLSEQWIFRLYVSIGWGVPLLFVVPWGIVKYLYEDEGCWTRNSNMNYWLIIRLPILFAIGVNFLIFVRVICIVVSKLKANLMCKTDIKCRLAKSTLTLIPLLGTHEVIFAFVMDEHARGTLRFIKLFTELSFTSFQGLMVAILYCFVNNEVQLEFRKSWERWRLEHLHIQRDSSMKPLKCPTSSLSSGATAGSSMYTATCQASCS
T2 sequence (P47871 26-477): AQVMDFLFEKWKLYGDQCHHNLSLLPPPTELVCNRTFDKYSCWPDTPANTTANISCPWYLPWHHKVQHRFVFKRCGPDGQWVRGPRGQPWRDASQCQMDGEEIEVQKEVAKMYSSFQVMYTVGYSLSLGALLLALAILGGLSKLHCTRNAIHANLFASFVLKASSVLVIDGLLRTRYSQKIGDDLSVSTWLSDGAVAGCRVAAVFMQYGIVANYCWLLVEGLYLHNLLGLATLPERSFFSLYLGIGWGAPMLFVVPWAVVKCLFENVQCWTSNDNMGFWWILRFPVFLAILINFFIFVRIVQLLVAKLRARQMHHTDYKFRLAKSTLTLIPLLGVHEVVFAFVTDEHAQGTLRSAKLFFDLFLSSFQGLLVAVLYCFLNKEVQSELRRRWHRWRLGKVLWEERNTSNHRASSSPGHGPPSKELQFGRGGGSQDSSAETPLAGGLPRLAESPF

SMILES: CC[C@H](C)[C@H](NC(=O)[C@H](CC(C)C)NC(=O)[C@](C)(Cc1ccc(O)cc1)NC(=O)[C@@H](CCC(=O)O)NC(=O)[C@@H](NC(=O)[C@H](Cc1ccccc1)NC(=O)[C@H](CCCCNC(=O)COCCOCCNC(=O)COCCOCCNC(=O)CCCCCCCCCOc1ccc(C(=O)O)cc1)NC(=O)C(C)(C)NC(=O)[C@H](CCC(N)=O)NC(=O)[C@H](C)NC(=O)[C@H](CCCCNC(=O)COCCOCCNC(=O)COCCOCCNC(=O)CCCCCCCCCOc1ccc(C(=O)O)cc1)NC(=O)[C@H](CCCN)NC(=O)[C@H](CC(=O)O)NC(=O)[C@H](CC(C)C)NC(=O)[C@](C)(CC(C)C)NC(=O)[C@@H](NC(=O)C(C)(C)NC(=O)[C@@H](NC(=O)[C@H](CC(=O)O)NC(=O)[C@H](CO)NC(=O)[C@@H](NC(=O)[C@](C)(Cc1ccccc1F)NC(=O)[C@@H](NC(=O)CNC(=O)[C@H](CCC(=O)O)NC(=O)C(C)(C)NC(=O)[C@@H](N)Cc1ccc(O)cc1)[C@@H](C)O)[C@@H](C)O)C(C)C)[C@@H](C)CC)[C@@H](C)CC)C(=O)N[C@@H](CCC(=O)O)C(=O)NCC(=O)NCC(=O)N1CCC[C@H]1C(=O)N[C@@H](CO)C(=O)N[C@@H](CO)C(=O)NCC(=O)N[C@@H](C)C(=O)N1CCC[C@H]1C(=O)N1CCC[C@H]1C(=O)N1CCC[C@H]1C(=O)N[C@@H](CO)C(N)=O [Example 394]
- Emax (hGIPR; HEK293, read-out: hGIPR Emax, % ± SEM, cAMP, 37° C., 0.1% bovine casein and 1.0% human serum albumin, percent of maximal response to GIP(1-42)NH2): 84.6%
- Emax (hGIPR; HEK293, read-out: hGIPR Emax, % ± SEM, cAMP, 37° C., 0.1% bovine casein, percent of maximal response to GIP(1-42)NH2, arithmetic mean): 97.7%
- EC50 (hGIPR; hGIPR EC50, nM (SEM, n), 37° C., 0.1% bovine casein (no human serum albumin), geometric mean): 0.0179 nM
- EC50 (hGIPR; hGIPR EC50, nM (SEM, n), 37° C., 0.1% bovine casein and 1.0% human serum albumin, geometric mean (SEM, n)): 1.38 nM
- Emax (hGLP-1R; HEK293, read-out: hGLP-1R Emax, % ± SEM, cAMP, 37° C., 0.1% bovine casein and 1.0% human serum albumin): 96.8%
- EC50 (hGLP-1R; hGLP-1R EC50, nM (SEM, n), 37° C., 0.1% bovine casein (no human serum albumin), geometric mean): 0.223 nM
- EC50 (hGLP-1R; hGLP-1R EC50, nM (SEM, n), 37° C., 0.1% bovine casein and 1.0% human serum albumin, geometric mean (SEM, n)): 5.83 nM
- EC50 (hGCGR; hGCGR EC50, nM (SEM, n), 37° C., 0.1% bovine casein (no human serum albumin), geometric mean): > 9950 nM
- EC50 (hGCGR; hGCGR EC50, nM (SEM, n), 37° C., 0.1% bovine casein and 1.0% human serum albumin, geometric mean (SEM, n)): > 9950 nM

SMILES: CC[C@H](C)[C@H](NC(=O)[C@H](CC(C)C)NC(=O)[C@](C)(Cc1ccc(O)cc1)NC(=O)[C@@H](CCC(=O)O)NC(=O)[C@@H](NC(=O)[C@H](Cc1ccccc1)NC(=O)[C@H](CCC(=O)O)NC(=O)C(C)(C)NC(=O)[C@H](CCC(N)=O)NC(=O)[C@H](C)NC(=O)[C@H](CCCCNC(=O)COCCOCCNC(=O)CC[C@H](NC(=O)CCCCCCCCCCCCC(=O)O)C(=O)O)NC(=O)[C@H](CCCN)NC(=O)[C@H](CC(=O)O)NC(=O)[C@H](CC(C)C)NC(=O)[C@](C)(CC(C)C)NC(=O)[C@@H](NC(=O)C(C)(C)NC(=O)[C@H](Cc1ccc(O)cc1)NC(=O)[C@H](CC(=O)O)NC(=O)[C@H](CO)NC(=O)[C@@H](NC(=O)[C@](C)(Cc1ccccc1F)NC(=O)[C@@H](NC(=O)CNC(=O)[C@H](CCC(=O)O)NC(=O)C(C)(C)NC(=O)[C@@H](N)Cc1ccc(O)cc1)[C@@H](C)O)[C@@H](C)O)[C@@H](C)CC)[C@@H](C)CC)C(=O)N[C@@H](CCCCNC(=O)COCCOCCNC(=O)CC[C@H](NC(=O)CCCCCCCCCCCCC(=O)O)C(=O)O)C(=O)NCC(=O)NCC(=O)N1CCC[C@H]1C(=O)N[C@@H](CO)C(=O)N[C@@H](CO)C(=O)NCC(=O)N[C@@H](C)C(=O)N1CCC[C@H]1C(=O)N1CCC[C@H]1C(=O)N1CCC[C@H]1C(=O)N[C@@H](CO)C(N)=O [Example 367]
- Emax (hGIPR; [1]): 112%
- EC50 (hGIPR; [2]): 0.019 nM
- Emax (hGLP-1R; HEK293, cAMP, 37° C., 0.1% bovine casein, arithmetic mean, read-out: hGLP-1R Emax, % ± SEM): 93.9%
- EC50 (hGLP-1R; [3]): 0.366 nM
- EC50 (hGCGR; [4]): > 9950 nM

SMILES: CC[C@H](C)[C@H](NC(=O)[C@H](CC(C)C)NC(=O)[C@](C)(Cc1ccc(O)cc1)NC(=O)[C@H](CCCCNC(=O)COCCOCCNC(=O)COCCOCCNC(=O)CC[C@H](NC(=O)CCCCCCCCCCCCC(=O)O)C(=O)O)NC(=O)[C@@H](NC(=O)[C@](C)(Cc1ccccc1)NC(=O)[C@H](CCC(=O)O)NC(=O)C(C)(C)NC(=O)[C@H](CCC(N)=O)NC(=O)[C@H](C)NC(=O)[C@H](CCCCNC(=O)COCCOCCNC(=O)COCCOCCNC(=O)CC[C@H](NC(=O)CCCCCCCCCCCCC(=O)O)C(=O)O)NC(=O)[C@H](CCCN)NC(=O)[C@H](CC(=O)O)NC(=O)[C@H](CC(C)C)NC(=O)[C@](C)(CC(C)C)NC(=O)[C@@H](NC(=O)[C@H](CO)NC(=O)[C@@H](NC(=O)[C@H](CC(=O)O)NC(=O)[C@H](CO)NC(=O)[C@@H](NC(=O)[C@](C)(Cc1ccccc1F)NC(=O)[C@@H](NC(=O)CNC(=O)[C@H](CCC(=O)O)NC(=O)C(C)(C)NC(=O)[C@@H](N)Cc1ccc(O)cc1)[C@@H](C)O)[C@@H](C)O)C(C)C)[C@@H](C)CC)[C@@H](C)CC)C(=O)N[C@@H](CCC(=O)O)C(=O)NCC(=O)NCC(=O)N1CCC[C@H]1C(=O)N[C@@H](CO)C(=O)N[C@@H](CO)C(=O)NCC(=O)N[C@@H](C)C(=O)N1CCC[C@H]1C(=O)N1CCC[C@H]1C(=O)N1CCC[C@H]1C(=O)N[C@@H](CO)C(N)=O [Example 118]
- Emax (hGIPR; HEK293, read-out: hGIPR Emax, % ± SEM, percent of maximal response to GIP(1-42)NH2, 37° C., 0.1% bovine casein, arithmetic mean): 94.7%
- EC50 (hGIPR; hGIPR EC50, nM (SEM, n), incubated at 37° C., 0.1% bovine casein (no human serum albumin), geometric mean): 0.0547 nM
- EC50 (hGLP-1R; hGLP-1R EC50, nM (SEM, n), incubated at 37° C., 0.1% bovine casein (no human serum albumin), geometric mean): 0.437 nM
- EC50 (hGCGR; hGCGR EC50, nM (SEM, n), incubated at 37° C., 0.1% bovine casein (no human serum albumin), geometric mean): > 9950 nM

SMILES: CC[C@H](C)[C@H](NC(=O)[C@H](CCCN)NC(=O)[C@H](CC(=O)O)NC(=O)[C@H](CC(C)C)NC(=O)[C@](C)(CC(C)C)NC(=O)[C@@H](NC(=O)C(C)(C)NC(=O)[C@@H](NC(=O)[C@H](CC(=O)O)NC(=O)[C@H](CO)NC(=O)[C@@H](NC(=O)[C@](C)(Cc1ccccc1F)NC(=O)[C@@H](NC(=O)CNC(=O)[C@H](CCC(=O)O)NC(=O)C(C)(C)NC(=O)[C@@H](N)Cc1ccc(O)cc1)[C@@H](C)O)[C@@H](C)O)C(C)C)[C@@H](C)CC)C(=O)N[C@@H](C)C(=O)N[C@@H](CCC(N)=O)C(=O)NC(C)(C)C(=O)N[C@@H](CCC(=O)O)C(=O)N[C@@H](Cc1ccccc1)C(=O)N[C@H](C(=O)N[C@@H](CCCCNC(=O)COCCOCCNC(=O)CC[C@H](NC(=O)CCCCCCCCCCCCC(=O)O)C(=O)O)C(=O)N[C@@](C)(Cc1ccc(O)cc1)C(=O)N[C@@H](CC(C)C)C(=O)N[C@H](C(=O)N[C@@H](CCCCNC(=O)COCCOCCNC(=O)CC[C@H](NC(=O)CCCCCCCCCCCCC(=O)O)C(=O)O)C(=O)NCC(=O)NCC(=O)N1CCC[C@H]1C(=O)N[C@@H](CO)C(=O)N[C@@H](CO)C(=O)NCC(=O)N[C@@H](C)C(=O)N1CCC[C@H]1C(=O)N1CCC[C@H]1C(=O)N1CCC[C@H]1C(=O)N[C@@H](CO)C(N)=O)[C@@H](C)CC)[C@@H](C)CC [Example 400]
- Emax (hGIPR; HEK293, cAMP, 37° C., 0.1% bovine casein and 1.0% human serum albumin, percent of maximal response to GIP(1-42)NH2, read-out: hGIPR Emax, % ± SEM): 83.2%
- Emax (hGIPR; [1]): 98.1%
- EC50 (hGIPR; [2]): 0.0821 nM
- Emax (hGLP-1R; HEK293, cAMP, 37° C., 0.1% bovine casein and 1.0% human serum albumin, read-out: hGLP-1R Emax, % ± SEM): 109%
- EC50 (hGLP-1R; [3]): 0.708 nM
- EC50 (hGCGR; [4]): > 9950 nM
- EC50 (hGCGR; 37° C., 0.1% bovine casein and 1.0% human serum albumin, geometric mean (SEM, n), read-out: hGCGR EC50, nM (SEM, n)): > 9950 nM
